Results taken from ChEMBL document CHEMBL4014333, “Discovery of Small Molecules for Repressing Cap-Independent Translation of Human Vascular Endothelial Growth Factor (hVEGF) as Novel Antitumor Agents” (J Med Chem, 2017).
Activity calls are given as the source filed them. The calls are words filed in the database; no cut-off is given here.

Tests used:
[1] = species: Homo sapiens; test: Binding affinity to human 5'-AGGAGCCGCAGCCGGAAGAGGAGAGGGGGCCGC-3' DNA at 1 uM after 24 hrs by spectrophotometric method
[2] = system: Mus musculus; test: Downregulation of VEGF-A expression in tumor of Balb/c mouse xenografted with human MCF7 cells at 7.5 mg/kg, ip qd for 20 days by immunohistochemical analysis; assay type: functional, organism-based
[3] = species: Homo sapiens; test: Destabilization of human 5'-UGAUGAGUGUGAGUAGUA-3' RNA expressed in MCF7 cells assessed as down regulation of VEGF-A translation at 0.1875 to 1.5 uM after 24 hrs by dual-luciferase reporter gene assay; assay type: cell-based
[4] = species: Homo sapiens; test: Destabilization of human wild type 5'-FAM labeled internal ribosome entry site A RNA G-quadruplex at 2.5 to 10 uM measured after 3 hrs by electrophoresis mobility shift assay
[5] = species: Homo sapiens; test: Destabilization of human 5'-UGAAGAGUGUGAGUAGUA-3' RNA expressed in MCF7 cells assessed as down regulation of VEGF-A translation at up to 1.5 uM after 24 hrs by dual-luciferase reporter gene assay; assay type: cell-based
[6] = species: Homo sapiens; test: Inhibition of BG4 antibody binding to biotin-labeled human wild type internal ribosome entry site A RNA G-quadruplex at 1.25 to 10 uM after 3 hrs by filter binding assay
[7] = system: MCF7; test: Effect on human wild type internal ribosome entry site A RNA G-quadruplex transcription expressed in human MCF7 cells assessed as Met luciferase gene expression at 0.1875 to 1.5 uM after 20 hrs by RT-PCR analysis; assay type: functional, cell-based
[8] = species: Homo sapiens; test: Binding affinity to internal ribosome entry site A RNA G-quadruplex region of VEGF-A protein in human MDA-MB-231 cells assessed as inhibition of VEGF-A protein induced cell migration at 0.5 to 8 uM after 4 hrs by RTCA method; assay type: cell-based
[9] = species: Homo sapiens; test: Destabilization of wild type internal ribosome entry site A RNA G-quadruplex in CoCl2 treated human MCF7 cells assessed as decrease in VEGF-A protein expression at 0.1875 to 3 uM after 48 hrs by Western blot analysis
[10] = Binding affinity to 5'- FAM-labeled wild type human internal ribosome entry site A RNA G-quadruplex after 5 mins by MST analysis
[11] = system: MCF7; test: Antitumor activity against human MCF7 cells xenografted in nude Balb/c mouse assessed as tumor volume at 7.5 mg/kg, ip qd for 20 days (Rvb >700 mm3); assay type: functional
[12] = Inhibition of NT-647 dye-labeled BG4 binding to human wild type internal ribosome entry site A RNA G-quadruplex assessed as BG4 antibody Kd by MST analysis (reference value: 10.8 nM)
[13] = species: Bos taurus; test: Binding affinity to calf thymus DNA at 1 uM after 24 hrs by spectrophotometric method
[14] = species: Homo sapiens; test: Selectivity ratio of Kd for biotin labeled human 5'-UGAUGAGUGUGAGGAGGA-3' RNA G-quadruplex to Kd for biotin-labeled human wild type internal ribosome entry site A RNA G-quadruplex
[15] = species: Homo sapiens; test: Destabilization of human wild type internal ribosome entry site A RNA G-quadruplex expression in human MCF7 cells assessed as decrease in VEGF-A protein expression at 0.1875 to 3 uM by Western blot analysis; assay type: cell-based
[16] = Binding affinity to TBA DNA G-quadruplex (unknown origin) at 1 uM after 24 hrs by spectrophotometric method
[17] = system: MCF7; test: Effect on BG4 protein expression in human MCF7 cells up to 1.5 uM by Western blot method; assay type: ADME, cell-based
[18] = species: Homo sapiens; test: Inhibition of BG4 protein binding to human wild type internal ribosome entry site A RNA G-quadruplex in MCF7 cells transfected with pcDNA3.1-BG4 plasmid at 2.5 to 5 uM after 24 hrs by RT-PCR analysis; assay type: cell-based
[19] = species: Homo sapiens; test: Binding affinity to internal ribosome entry site A RNA G-quadruplex region of VEGF-A protein in CoCl2 treated human MCF7 cells assessed as VEGF-A protein induced cell migration at 3 uM preincubated for 48 hrs followed by VEGF-A protein addition measured after 12 hrs by cell scrape test relative to control
[20] = species: Homo sapiens; test: Binding affinity to wild type human internal ribosome entry site A RNA G-quadruplex at 1 uM after 24 hrs by spectrophotometric method
[21] = Binding affinity to TERRA RNA G-quadruplex (unknown origin) at 1 uM after 24 hrs by spectrophotometric method
[22] = system: MCF7; test: Antitumor activity against human MCF7 cells xenografted in nude Balb/c mouse assessed as reduction in tumor weight at 7.5 mg/kg, ip qd for 20 days relative to control; assay type: functional; set-up: scale not given: the % may be the effect or the level left
[23] = system: MCF7; test: Effect on human VEGF-A transcription expressed in human MCF7 cells assessed as Met luciferase gene expression at 0.1875 to 3 uM by qRT-PCR analysis; assay type: functional, cell-based
[24] = Binding affinity to 5'- FAM-labeled 5'-GGAGGAGGGGGAGGAGGA-3' DNA (unknown origin) up to 60 uM after 5 mins by MST analysis
[25] = system: MCF7; test: Cytotoxicity against human MCF7 cells after 24 hrs relative to control; assay type: cell-based; conditions: mcf7, 24 h
[26] = species: Homo sapiens; test: Inhibition of FLAG-labeled BG4 antibody binding to human wild type internal ribosome entry site A RNA G-quadruplex at 1.25 to 10 uM preincubated with RNA followed by antibody addition by pull-down assay
[27] = species: Homo sapiens; test: Inhibition of BG4 protein binding to human wild type internal ribosome entry site A RNA G-quadruplex in MCF7 cells transfected with pcDNA3.1-BG4 plasmid at 2.5 to 5 uM after 24 hrs by qRT-PCR analysis; assay type: cell-based
[28] = species: Homo sapiens; test: Destabilization of human internal ribosome entry site A RNA G-quadruplex by CD spectral analysis
[29] = Binding affinity to C-kit 1 DNA G-quadruplex (unknown origin) at 1 uM after 24 hrs by spectrophotometric method
[30] = species: Homo sapiens; test: Binding affinity to internal ribosome entry site A RNA G-quadruplex region of VEGF-A protein in human MDA-MB-231 cells assessed as inhibition of VEGF-A protein induced cell migration at 0.5 to 8 uM after 10 hrs by RTCA method; assay type: cell-based
[31] = species: Homo sapiens; test: Binding affinity to human 5'-UGAUGAGUGUGAGUAGUA-3' RNA at 1 uM after 24 hrs by spectrophotometric method
[32] = species: Homo sapiens; test: Destabilization of human VEGF-A promoter DNA up to 5 uM by CD spectral analysis
[33] = species: Homo sapiens; test: Destabilization of human wild type internal ribosome entry site A RNA G-quadruplex expressed in human MCF7 cells assessed as decrease in VEGF-A protein expression at 1.5 uM after 48 hrs by ELISA relative to control; assay type: cell-based; set-up: scale not given: the % may be the effect or the level left
[34] = Selectivity ratio of Kd for biotin-labeled hairpin DNA (unknown origin) to Kd for biotin-labeled human wild type internal ribosome entry site A RNA G-quadruplex
[35] = species: Homo sapiens; test: Destabilization of human 5'-FAM-labeled 5'-UGAUGAGUGUGAGUAGUA-3' RNA up to 10 uM measured after 3 hrs by electrophoresis mobility shift assay
[36] = species: Homo sapiens; test: Inhibition of BG4 antibody binding to internal ribosome entry site A RNA G-quadruplex in human MCF7 cells preincubated for 24 hrs followed by BG4 antibody addition measured after 12 hrs by dot blot hybridization assay; assay type: cell-based

Activity [1]: inactive
Activity [4]: Active
inhibition [6]: Active
Activity [9]: Dose-dependent effect
Kd [10]: 1290 nM
Kd [12]: 4.64 µM
Activity [13]: inactive
Selectivity ratio [14]: 4
Activity [16]: inactive
Activity [19]: 35%
Activity [20]: Active
Activity [21]: inactive
Activity [24]: Active
inhibition [26]: Active
Activity [28]: Dose-dependent effect
Activity [29]: inactive
Activity [31]: inactive
Activity [32]: Active
Selectivity ratio [34]: 23
Activity [35]: inactive
SMILES: CCN(CC)CCOc1ccc(Nc2nc(-c3ccccc3NC(=O)CCN3CCN(C)CC3)nc3ccccc23)cc1
Activity [2]: Active
Activity [3]: inactive
Activity [5]: inactive
Activity [7]: inactive
Activity [8]: Active
Activity [11]: <300 mm3
Activity [15]: Active
Activity [17]: Non-Toxic
inhibition [18]: Active
Activity [22]: 60.1%
Activity [23]: inactive
Activity [25]: 65.5%
inhibition [27]: Active
Activity [30]: inactive
Activity [33]: 75%
inhibition [36]: Dose-dependent effect
